Legend:
[1] = compound: Cn1cnc2c(F)c(Nc3ccc(Br)cc3Cl)c(C(=O)NOCCO)cc21 [Selumetinib]; conditions: max 10 µM
How it was run: (§1)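 Viability was measured with CellTiter-Glo 2.0 luminescence after 72 hours of dosing at a final DMSO of typically 0.2%, and scaled between blank-well and DMSO-well means. Beforehand, cancer cell lines sat 24 hours at 37°C and 5% CO2 in 1536-well plates in 7.5 μl DMEM/F12 or RPMI with 10% FBS. A non-linear mixed effects model fitted two-parameter logistic curves to the dose responses. The single-agent IC50 comes from these fits.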

[2] = compound: CCc1c2c(nc3ccc(O)cc13)-c1cc3c(c(=O)n1C2)COC(=O)[C@]3(O)CC [SN-38]; conditions: max 0.3 µM
How it was run: as §1

[3] = compound: CN(CC[C@H](CSC1=CC=CC=C1)NC2=C(C=C(C=C2)S(=O)(=O)NC(=O)C3=CC=C(C=C3)N4CCC(CC4)[C@H](C5=CC=CC=C5C6=CC=C(C=C6)Cl)O)S(=O)(=O)C(F)(F)F)CCO [AZD4320]; conditions: max 1 µM
How it was run: as §1

[4] = compound: Cc1cc2ncnn2cc1Nc1ncc2c(n1)n(C1CCOCC1)c(=O)n2C [AZD7648]; conditions: max 10 µM
How it was run: as §1

[5] = compound: CC(=O)c1c(C)c2cnc(Nc3ccc(N4CCNCC4)cn3)nc2n(C2CCCC2)c1=O [Palbociclib]; conditions: max 10 µM
How it was run: as §1

[6] = compound: CS(=O)(=O)CCNCc1ccc(-c2ccc3ncnc(Nc4ccc(OCc5cccc(F)c5)c(Cl)c4)c3c2)o1 [Lapatinib]; conditions: max 10 µM
How it was run: as §1

[7] = compound: CN(C)CCCOc1ccc(-c2ccc3ncc4c(c3c2)n(C2CCOCC2)c(=O)n4C)cn1 [AZD0156]; conditions: max 3 µM
How it was run: as §1

[8] = compound: CC(C)n1c(=O)n(C)c2cnc3cc(F)c(-c4ccc(OCCCN5CCCCC5)nc4)cc3c21 [AZD1390]; conditions: max 0.3 µM
How it was run: as §1

[9] = compound: C[C@@H]1COCCN1C2=NC(=NC(=C2)C3(CC3)[S@](=N)(=O)C)C4=C5C=CNC5=NC=C4 [AZD6738]; conditions: max 10 µM
How it was run: as §1

[10] = compound: COc1cccc(OCCCN)c1-c1cc(Nc2cnc(C#N)cn2)n[nH]1 [Prexasertib]; conditions: max 1 µM
How it was run: as §1

[11] = compound: CC1=C(C(=CC=C1)Cl)NC(=O)C2=CN=C(S2)NC3=CC(=NC(=N3)C)N4CCN(CC4)CCO [Dasatinib]; conditions: max 2 µM
How it was run: as §1

[12] = compound: CCN(CCO)CCCOc1ccc2c(Nc3cc(CC(=O)Nc4cccc(F)c4)[nH]n3)ncnc2c1 [AZD2811]; conditions: max 1 µM
How it was run: as §1

[13] = compound: COc1cc(Nc2ncc3c(n2)-c2ccc(Cl)cc2C(c2c(F)cccc2OC)=NC3)ccc1C(=O)O [Alisertib]; conditions: max 10 µM
How it was run: as §1

[14] = compound: C1CN(CCC1(C(=O)N[C@@H](CCO)C2=CC=C(C=C2)Cl)N)C3=NC=NC4=C3C=CN4 [Capivasertib]; conditions: max 10 µM
How it was run: as §1

[15] = compound: COc1nnc2ccc(N3CCC(c4ccc(OCCN5CCN(C)C(=O)[C@H]5C)cc4)CC3)nn12 [AZD5153]; conditions: max 1 µM
How it was run: as §1

[16] = compound: CC1(C)CCC(CN2CCN(c3ccc(C(=O)NS(=O)(=O)c4ccc(NCC5CCOCC5)c([N+](=O)[O-])c4)c(Oc4cnc5[nH]ccc5c4)c3)CC2)=C(c2ccc(Cl)cc2)C1 [Venetoclax]; conditions: max 1 µM
How it was run: as §1

[17] = compound: COc1cc2ncnc(Nc3ccc(F)c(Cl)c3)c2cc1OCCCN1CCOCC1 [Gefitinib]; conditions: max 10 µM
How it was run: as §1

[18] = compound: CC1=CN2[C@@H](C1)C=NC3=CC(=C(C=C3C2=O)OC)OCCCCCOC4=C(C=C5C(=C4)N=C[C@@H]6CC(=CN6C5=O)C)OC [SG3199]; conditions: max 0.001 µM
How it was run: as §1

[19] = compound: C[C@@H](c1ccc2nccn2c1)n1nnc2ncc(-c3cnn(C)c3)nc21 [Savolitinib]; conditions: max 1 µM
How it was run: as §1

[20] = compound: C=CCn1c(=O)c2cnc(Nc3ccc(N4CCN(C)CC4)cc3)nc2n1-c1cccc(C(C)(C)O)n1 [AZD1775]; conditions: max 3 µM
How it was run: as §1

[21] = compound: Cc1c2c(nn1C)CSCc1cc(n(C)n1)CSc1cc(c3ccccc3c1)OCCCc1c(C(=O)O)n(C)c3c-2c(Cl)ccc13 [AZD5991]; conditions: max 1 µM
How it was run: as §1

[22] = compound: C[C@@H](Oc1cc(-c2cnn(C3CCNCC3)c2)cnc1N)c1c(Cl)ccc(F)c1Cl [Crizotinib]; conditions: max 10 µM
How it was run: as §1

[23] = compound: C[C@@H](Nc1cc(F)cc(F)c1)c1cc(C(=O)N(C)C)cc2c(=O)cc(N3CCOCC3)oc12 [AZD8186]; conditions: max 3 µM
How it was run: as §1

[24] = compound: CC(=O)Nc1cccc(-n2c(=O)n(C3CC3)c(=O)c3c(Nc4ccc(I)cc4F)n(C)c(=O)c(C)c32)c1 [Trametinib]; conditions: max 1 µM
How it was run: as §1

[25] = compound: Cc1nc(-c2cn3c(n2)-c2ccc(-c4cnn(C(C)(C)C(N)=O)c4)cc2OCC3)n(C(C)C)n1 [Taselisib]; conditions: max 10 µM
How it was run: as §1

[26] = compound: O=C(c1cc(Cc2n[nH]c(=O)c3ccccc23)ccc1F)N1CCN(C(=O)C2CC2)CC1 [Olaparib]; conditions: max 10 µM
How it was run: as §1

[27] = compound: COc1cccc2c1C(=O)c1c(O)c3c(c(O)c1C2=O)C[C@@](O)(C(=O)CO)C[C@@H]3O[C@H]1C[C@H](N)[C@H](O)[C@H](C)O1 [Doxorubicin]; conditions: max 1 µM
How it was run: as §1

Row | Cell Line | IC50, cell viability 72 h [1] [nM] | IC50, cell viability 72 h [2] [nM] | IC50, cell viability 72 h [3] [nM] | IC50, cell viability 72 h [4] [nM] | IC50, cell viability 72 h [5] [nM] | IC50, cell viability 72 h [6] [nM] | IC50, cell viability 72 h [7] [nM] | IC50, cell viability 72 h [8] [nM] | IC50, cell viability 72 h [9] [nM] | IC50, cell viability 72 h [10] [nM] | IC50, cell viability 72 h [11] [nM] | IC50, cell viability 72 h [12] [nM] | IC50, cell viability 72 h [13] [nM] | IC50, cell viability 72 h [14] [nM] | IC50, cell viability 72 h [15] [nM] | IC50, cell viability 72 h [16] [nM] | IC50, cell viability 72 h [17] [nM] | IC50, cell viability 72 h [18] [nM] | IC50, cell viability 72 h [19] [nM] | IC50, cell viability 72 h [20] [nM] | IC50, cell viability 72 h [21] [nM] | IC50, cell viability 72 h [22] [nM] | IC50, cell viability 72 h [23] [nM] | IC50, cell viability 72 h [24] [nM] | IC50, cell viability 72 h [25] [nM] | IC50, cell viability 72 h [26] [nM] | IC50, cell viability 72 h [27] [nM]
1 | SCC-3 (B-Cell Non-Hodgkin's Lymphoma) | > 10000 | 6.1 | > 1000 | > 10000 | > 10000 | > 10000 | > 3000 | > 300 | 1070 | 17.6 | > 2000 | > 1000 | 721 | > 10000 | 67.4 | > 1000 | > 10000 | > 1 | > 1000 | 370 | > 1000 | 717 | > 3000 | > 1000 | > 10000 | > 10000 | 386
2 | BV-173 (Chronic Myelogenous Leukemia) | 2330 | 1.42 | 5.26 | > 10000 | 3940 | 4020 | > 3000 | > 300 | 260 | 4.79 | < 2 | 6.95 | 38.5 | 4140 | 65.1 | 50.4 | > 10000 | > 1 | > 1000 | 294 | 30.6 | 497 | > 3000 | 57.2 | > 10000 | 3250 | 46.5
3 | KLE (Endometrial Carcinoma) | > 10000 | > 300 | > 1000 | > 10000 | > 10000 | > 10000 | > 3000 | > 300 | > 10000 | > 1000 | 186 | > 1000 | 9070 | > 10000 | 315 | > 1000 | > 10000 | > 1 | > 1000 | 1800 | > 1000 | > 10000 | > 3000 | > 1000 | 2430 | > 10000 | > 1000
4 | BT-20 (Breast Carcinoma) | > 10000 | 57.7 | > 1000 | > 10000 | > 10000 | > 10000 | > 3000 | > 300 | > 10000 | 319 | > 2000 | > 1000 | 9860 | 1210 | > 1000 | > 1000 | > 10000 | > 1 | > 1000 | 1440 | > 1000 | > 10000 | > 3000 | 202 | 297 | > 10000 | > 1000
5 | A704 (Kidney Carcinoma) | > 10000 | 274 | > 1000 | > 10000 | > 10000 | 8790 | > 3000 | > 300 | > 10000 | > 1000 | 110 | > 1000 | 5350 | > 10000 | 538 | > 1000 | > 10000 | > 1 | > 1000 | 2510 | > 1000 | > 10000 | 1540 | > 1000 | > 10000 | > 10000 | > 1000
6 | GOTO (Neuroblastoma) | > 10000 | 3.91 | > 1000 | > 10000 | 7010 | 6070 | > 3000 | > 300 | 592 | 11.8 | > 2000 | 332 | 272 | > 10000 | 91.7 | > 1000 | > 10000 | > 1 | > 1000 | 650 | 398 | 1640 | > 3000 | > 1000 | 4550 | > 10000 | 193
7 | NH-12 (Neuroblastoma) | > 10000 | 4.09 | 79.3 | > 10000 | > 10000 | > 10000 | > 3000 | > 300 | 2370 | 17.3 | > 2000 | 509 | 68.8 | > 10000 | 625 | 576 | > 10000 | > 1 | > 1000 |  | > 1000 | 3020 | > 3000 | 105 | 1250 | > 10000 | 157
8 | LOU-NH91 (Squamous Cell Lung Carcinoma) | > 10000 | 17.1 | > 1000 | > 10000 | > 10000 | > 10000 | > 3000 | > 300 | > 10000 | > 1000 | 657 | > 1000 | > 10000 | > 10000 | 239 | > 1000 | > 10000 | > 1 | > 1000 | 1350 | > 1000 | > 10000 | > 3000 | > 1000 | 5870 | > 10000 | 542
